From patent publication US20260034094A1, “COMPOSITIONS AND METHODS FOR INDUCING FERROPTOSIS” (Kojin Therapeutics, Inc., priority 2022, published 2026)

Experiments:
solid tumor animal model = test: Microdosing tumors with ferroptosis-inducing agents (implantable drug delivery system, cleaved caspase-3 / H&E staining); format: in vivo, C57BL6/J mice; settings: for tumor response (cleaved caspase-3 staining: cell death, white blood cell recruitment): local sustained administration, 1-10 μM at the tumor site, 24 hours
Experimental: For the allograft study, cancer cell line-derived tumor cells were injected into the flanks of male C57BL6/J mice. Assays were initiated when the tumor diameter was approximately 6-7 mm.
Microdose drug delivery was performed for the assay described herein. The compounds in Table 22 were packed into device reservoirs using a tapered metal needle. Reservoirs were loaded for initial release of liproxstatin-1 (where included) followed by a 4-6 h delayed release of ferroptosis inducers. Devices were prepared for dose administration into mouse tumors. Devices delivered the ferroptosis inducing agent for 24-72 hours in the tissue. The tumor was then excised, and the tissue was snap frozen with liquid nitrogen. Tissue was sectioned using a standard cryotome, and tissue slices of 20 μm in thickness were collected from each reservoir for analysis by immunoassays, transcriptomics, and metabolomic assays.
A drug delivery system was applied to a: solid tumor animal model. Animals were administered (1) L-BSO or (2) L-BSO+liproxstatin-1 (lip-1) as a ferroptosis-rescue agent. Drugs were loaded into an implantable drug delivery system to achieve concentrations of 1-10 μM for both BSO+lip-1 at the tumor site. After 24 hours, tumors were removed and stained for cleaved caspase-3 to indicate cell death in the tumor (FIG. 2A). […] Therefore, ferroptosis can be induced by both local and systemic administration of BSO.
A drug delivery system was applied to a: solid tumor animal model. Animals were administered (1) ML-210 or (2) ML-210+liproxstatin-1 (lip-1), as a ferroptosis rescue agent. Drugs were loaded into an implantable drug delivery system to achieve concentrations of 1-10 μM for both ML-210 and ML-210+liproxstatin-1 (lip-1) at the tumor site. After 24 hours, tumors were removed and stained for cleaved caspase-3.
To achieve therapeutic doses of RSL3 in vivo, a drug delivery system was applied to a: solid tumor animal model. Animals were administered (1) RSL3 or (2) RSL3+liproxstatin (lip-1) as a ferroptosis rescue agent. Drugs were loaded into an implantable drug delivery system to achieve concentrations of 1-10 μM for both RSL-3 and RSL3 and lip-1 co-administration at the tumor site. After 24 hours of sustained administration, tumors were removed and stained for cleaved caspase-3 (FIG. 5A). Dashed lines indicate region of drug exposure.

cancer cells = test: Cell line profiling with a ferroptosis-inducing agent with and without a rescue agent (CellTiter-Glo); format: cell-based, human; settings: for fractional viability of cancer cells with fer-1 co-treatment: +1.5 μM fer-1
Experimental: Cell viability assays are performed by seeding 1,000 cells per well (30 μl volume) in opaque white 384-well plates (Corning). Cells are allowed to adhere for 24 h, after which they are exposed to compounds for 72 hours. DMSO stock solutions of compounds are added to cells using a CyBio Well Vario liquid dispenser (Analytik Jena AG). Cellular ATP levels are measured using CellTiter-Glo (Promega) as a surrogate for viability. Rescue assays are performed using rescue agents-ferrostatin-1 (fer-1, 1.5 μM), liproxstatin-1 (lip-1, 1 μM), deferoxamine (DFO, 50 μM), and other ferroptosis inhibitors added to cells at the time of addition to assay plates. Dose-response curves for BSO and RSL3 are shown in FIG. 4 with and without anti-ferroptosis rescue agent treatment (indicated as no treatment or +1.5 μM fer-1).

RKN cells = test: RKN cell profiling assay (cell viability, CellTiter-Glo); format: cell-based; settings: cell viability, read-out: Cell Killing EC50
Outline: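 Viability read by CellTiter-Glo luminescence after 96 h compound exposure (0.5% DMSO final) of cells plated at 1,000/well in 10% FBS F-12 and allowed 24 h attachment. Four-parameter fits gave EC50; rescue arms used ferrostatin-1, 1.5 μM, present from seeding.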

human recombinant GCL = human recombinant GCL (Homo sapiens (Human), UniProt P48506); test: GCL enzyme profiling assay (ADP-Glo luminescence); format: biochemical; settings: human recombinant GCL, ADP-Glo; read-out: GCL IC50
Sequence of human recombinant GCL (P48506 whole entry): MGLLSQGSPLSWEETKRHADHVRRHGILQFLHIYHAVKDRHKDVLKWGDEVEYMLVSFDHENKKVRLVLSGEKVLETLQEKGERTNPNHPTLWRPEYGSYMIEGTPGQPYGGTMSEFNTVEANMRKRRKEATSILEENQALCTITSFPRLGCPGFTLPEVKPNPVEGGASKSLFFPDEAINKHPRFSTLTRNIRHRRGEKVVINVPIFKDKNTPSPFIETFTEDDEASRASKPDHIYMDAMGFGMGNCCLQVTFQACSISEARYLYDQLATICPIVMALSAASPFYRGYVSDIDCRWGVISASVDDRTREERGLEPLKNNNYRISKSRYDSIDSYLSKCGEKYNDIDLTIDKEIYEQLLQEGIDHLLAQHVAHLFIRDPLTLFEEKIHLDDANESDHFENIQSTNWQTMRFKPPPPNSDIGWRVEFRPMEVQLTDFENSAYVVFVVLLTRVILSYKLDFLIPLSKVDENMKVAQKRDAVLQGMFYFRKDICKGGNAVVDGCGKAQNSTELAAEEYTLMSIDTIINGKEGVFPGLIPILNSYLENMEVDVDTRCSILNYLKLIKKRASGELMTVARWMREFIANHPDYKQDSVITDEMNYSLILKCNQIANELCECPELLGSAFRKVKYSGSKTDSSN
Outline: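 IC50 fitted by four-parameter logistic to luminescent ADP formation (ADP-Glo). Reaction at room temperature in HEPES pH 7.5 with 30 mM MgCl2, 0.2% F-127, 1% DMSO; 5 nM GCL and 0.6 mM ATP preincubated 1 h before adding 1 mM glutamate plus 1.2 mM α-aminobutyrate for 2 h.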

**Q.** Which results are given for `CCCCS(=N)(=O)CC[C@H](N)C(=O)O` (stereo partly drawn) [BSO, buthionine sulfoximine]?
**A.** fractional viability of tumor (solid tumor animal model; compared with BSO+fer-1 treated sections of the tumor): significant reductions in fractional viability; tumor response (cleaved caspase-3 staining: cell death, white blood cell recruitment) (solid tumor animal model): recruitment of white blood cells to the tumor indicating immune cell recruitment and cell death at the tumor site; fractional viability of cancer cells with fer-1 co-treatment (cancer cells): not observed

**Q.** `CCOC(=O)c1ccc(NC2CCCCC2)c(N)c1` [Ferrostatin-1, ferrostatin-1] was tested. Which “rescue from cell death” value (cancer cells; RSL3 and BSO treated tumors in vivo, 1.5 μM fer-1) did it give?
**A.** prevents cell death

**Q.** `Cc1onc(C(=O)N2CCN(C(c3ccc(Cl)cc3)c3ccc(Cl)cc3)CC2)c1[N+](=O)[O-]` [ML-210] was tested. Which “tumor response (cleaved caspase-3 staining: cell death, white blood cell recruitment)” value (solid tumor animal model) did it give?
**A.** recruitment of white blood cells to the tumor indicating immune cell recruitment and cell death at the tumor site

**Q.** For `COC(=O)c1ccc([C@H]2c3[nH]c4ccccc4c3C[C@H](C(=O)OC)N2C(=O)CCl)cc1` [RSL3, (1S,3R)-RSL3], which “tumor response (cleaved caspase-3 staining: cell death, white blood cell recruitment)” value (solid tumor animal model) is on record?
**A.** White blood cell recruitment and cell death were prominent

**Q.** And the “fractional viability of cancer cells with fer-1 co-treatment” value (cancer cells)?
**A.** reduction in the fractional viability of cancer cells

**Q.** And the ferroptosis induction (cancer cells; dose-response, with and without 1.5 μM fer-1)?
**A.** robust inducer of ferroptosis

**Q.** What does the source list for `N[C@@H](CCS(=O)(=O)CCC1(c2ccccn2)CCC1)C(=O)O` [compound 390]?
**A.** EC50 (RKN cells): ≥ 1 mM; IC50 (human recombinant GCL): > 2000 µM

**Q.** How did the EC50 (RKN cells) turn out when `N=S(=O)(CCC(c1ccc(S(=O)(=O)Nc2ccccc2)cc1)C(F)(F)F)CC[C@H](N)C(=O)O` (stereo partly drawn) [compound 499] was run?
**A.** ≥ 1 mM

**Q.** And the IC50 (human recombinant GCL)?
**A.** ≤ 20 µM

**Q.** Which results are given for `N=[S@SP2](=O)(CCC(N)C(=O)O)CCC12CC(c3ccc(C(F)(F)F)cc3)(C1)C2(F)F` (stereo not drawn) [compound 500]?
**A.** EC50 (RKN cells): ≥ 1 mM; IC50 (human recombinant GCL): ≤ 20 µM

**Q.** Which results are given for `N=S(=O)(CC[C@H](N)C(=O)O)CCC(O)(c1ccc(Oc2ccc3ccc(=O)oc3c2)cc1)C(F)(F)F` (stereo partly drawn) [compound 501]?
**A.** EC50 (RKN cells): ≥ 1 mM; IC50 (human recombinant GCL): ≤ 20 µM

**Q.** `N=S(=O)(CC[C@H](N)C(=O)O)CCC(O)(c1nc2ccccc2o1)C(F)(F)F` (stereo partly drawn) [compound 502] was tested. Which EC50 (RKN cells) did it give?
**A.** < 1 mM

**Q.** What about the IC50 (human recombinant GCL) of the same compound?
**A.** ≤ 20 µM

**Q.** `N=S(=O)(CC[C@H](N)C(=O)O)CCC(O)(C1[C@@H](c2ccccc2)[C@H]1c1ccccc1)C(F)(F)F` (stereo partly drawn) [compound 503] was tested. Which EC50 (RKN cells) did it give?
**A.** ≥ 1 mM

**Q.** What about the IC50 (human recombinant GCL) of the same compound?
**A.** 20 to 2000 µM

**Q.** How did the EC50 (RKN cells) turn out when `CC(=O)N(c1ccc(C(O)(CC[S@SP3](=N)(=O)CCC(N)C(=O)O)C(F)(F)F)cc1)c1nccs1` (stereo not drawn) [compound 504] was run?
**A.** ≥ 1 mM

**Q.** What about the IC50 (human recombinant GCL) of the same compound?
**A.** ≤ 20 µM

**Q.** For `N=[S@SP2](=O)(CCC(N)C(=O)O)CCC(O)(c1ccc(Nc2nccs2)cc1)C(F)(F)F` (stereo not drawn) [compound 505], which EC50 (RKN cells) is on record?
**A.** ≥ 1 mM

**Q.** What about the IC50 (human recombinant GCL) of the same compound?
**A.** ≤ 20 µM

**Q.** Which results are given for `CC(=O)Nc1ccc(C(O)(CCS(=N)(=O)CC[C@H](N)C(=O)O)C(F)(F)F)cc1` (stereo partly drawn) [compound 506]?
**A.** EC50 (RKN cells): < 1 mM; IC50 (human recombinant GCL): 20 to 2000 µM

**Q.** With `N=[S@SP2](=O)(CCC(N)C(=O)O)CCC(O)(c1ccc(N[S@SP3](=O)(=O)c2ccccc2)cc1)C(F)(F)F` (stereo not drawn) [compound 507] as the compound, how does the EC50 (RKN cells) read?
**A.** ≥ 1 mM

**Q.** What about the IC50 (human recombinant GCL) of the same compound?
**A.** ≤ 20 µM

**Q.** What does the source list for `N=[S@SP2](=O)(CCC(N)C(=O)O)CCC(c1ccccc1)(C(F)(F)F)C(F)(F)F` (stereo not drawn) [compound 508]?
**A.** EC50 (RKN cells): ≥ 1 mM; IC50 (human recombinant GCL): 20 to 2000 µM

**Q.** With `N=[S@SP2](=O)(CCC(N)C(=O)O)CCC(c1ccc(-c2ccccc2)cc1)(C(F)(F)F)C(F)(F)F` (stereo not drawn) [compound 509] as the compound, how does the EC50 (RKN cells) read?
**A.** ≥ 1 mM

**Q.** What about the IC50 (human recombinant GCL) of the same compound?
**A.** ≤ 20 µM

**Q.** How did the EC50 (RKN cells) turn out when `N=S(=O)(CC[C@H](N)C(=O)O)CCC(c1ccc(-c2ccc(Cl)cc2Cl)cc1)(C(F)(F)F)C(F)(F)F` (stereo partly drawn) [compound 510] was run?
**A.** ≥ 1 mM

**Q.** And the IC50 (human recombinant GCL)?
**A.** ≤ 20 µM

**Q.** `N=S(=O)(CC[C@H](N)C(=O)O)CCC1(C(F)(F)F)OCc2ccccc21` (stereo partly drawn) [compound 511] was tested. Which EC50 (RKN cells) did it give?
**A.** < 1 mM

**Q.** And the IC50 (human recombinant GCL)?
**A.** 20 to 2000 µM

**Q.** `N[C@@H](CCS(=O)(=O)CCC1(C(F)(F)F)OC(=O)c2ccccc21)C(=O)O` (stereo partly drawn) [compound 512] was tested. Which EC50 (RKN cells) did it give?
**A.** ≥ 1 mM

**Q.** And the IC50 (human recombinant GCL)?
**A.** > 2000 µM

**Q.** `N=[S@@](=O)(CC[C@H](N)C(=O)O)CCC1(CO)CCC1` [compound 515] was tested. Which EC50 (RKN cells) did it give?
**A.** < 1 mM

**Q.** What about the IC50 (human recombinant GCL) of the same compound?
**A.** ≤ 20 µM

**Q.** Which EC50 (RKN cells) does the source give for `N[C@@H](CCS(=O)(=O)CCC(O)C(F)(F)F)C(=O)O` (stereo partly drawn) [compound 516] here?
**A.** ≥ 1 mM

**Q.** What about the IC50 (human recombinant GCL) of the same compound?
**A.** > 2000 µM
